Test results from patent publication US9580465B2, “Tissue protective peptides and peptide analogs for preventing and treating diseases and disorders associated with tissue damage” (ARAIM PHARMACEUTICALS, INC., priority 2008, dated 2017).
Several values for one entry are separate records, joined by “and”; a condition that tells them apart may be missing. Equal values may be shown once. Entries after “also recorded” stand apart in the source; their conditions may differ. Square brackets hold non-standard residues; d marks the D form. Ends that are not written are not given here.

Columns and labels:
[1] = tested on: cisplatin-induced nephropathy; assay: Cisplatin induced nephropathy; assay type: in vivo, rats; settings: CDDT 2 mg/kg i.p. twice a week; peptide 0.4 μg/kg three times a week for 5 weeks; FIG. 10
Protocol: Cancer chemotherapeutic agents such as cisplatin (CDDT) are known to induce renal injury among other toxicities. The ability of Peptide IC to protect rats form cisplatin-induced nephropathy was evaluated by administering 2 mg/kg CDDT intraperitoneally, twice a week for 5 weeks. Peptide IC was simultaneously administered at a dose of 0.4 μg/kg, three times a week for 5 weeks. Renal function was evaluated by measuring the volume of urine production.

[2] = tested on: cisplatin induced neuropathy; assay: Cisplatin induced peripheral neuropathy (hotplate latency); assay type: in vivo, rats; settings: CDDT 2 mg/kg i.p. twice a week; peptide 0.4 μg/kg three times a week for 5 weeks; FIG. 11
Protocol: Also, CDDT is known to induce peripheral neuropathy, among other toxicities. Following the experimental design described above for renal function, the ability of Peptide IC to protect against peripheral neuropathy was also evaluated. 2 mg/kg CDDT was administered intraperitoneally, twice a week for 5 weeks. Peptide IC was simultaneously administered at a dose of 0.4 μg/kg, three times a week for 5 weeks. Neuropathy was evaluated by hotplate latency, the delay period between contact of the rat's foot to a warm surface, and the retraction of the foot.

[3] = tested on: pressure ulcer; assay: Decubitus ulcer (pressure sore) assay; assay type: in vivo, Sprauge-Dawley rats; settings: 30 μg/kg sc daily; compared with all groups; FIG. 20
Protocol: A decubitus ulcer (pressure sore) assay was performed on 24 adult Sprauge-Dawley rats in accordance with the disclosure of Pierce et al., Selective A2A adenosine receptor activation reduces skin pressure ulcer formation and inflammation, Am J Physiol Heart Circ Physiol 281:67-74, 2001. Briefly, a ferromagnetic steel plate was implanted under a dorsal region of the rats skin. A rectangular permanent magnet was applied to the area of the skin under which the plate was implanted in order to compress the skin between the plate and the magnet. This compression reduced the flow of blood to the skin causing ischemia. The rats were subjected to a cycle of ischemia-reperfusion (2 hours ischemia with a 0.5 hour reperfusion) for a 72-hour period. […] Daily the area of the wound on each rat was measured for a period of 12 days.

[4] = tested on: histamine; assay: Histamine induced wheal formation, peptide given at time of challenge; assay type: in vivo, Sprague-Dawley rats; settings: 30 μg/kg at time of histamine challenge
Protocol: Under isoflurane anesthesia, 12 Sprague-Dawley rats' abdomens were shaved and depilated. Each rat was then injected intravenously (via internal jugular) with a dilute solution of Evans Blue (30 mg/ml in saline, 1 ml/kg bw). After 5 minutes, 6 small doses of histamine (Histamine diphosphate, 20 microliters administered intradermally) in a rectangular pattern on each rat's abdomen. After fifteen minutes, when the wheal reaches its maximum size the wheal is photographed and the blister area was determined by digital planimetry. To test the efficacy of various peptides, the peptide of interest was administered to the rats intravenously shortly after the histamine injection.
Rats received either saline, Peptide IY (30 μg/kg), Peptide ID (30 μg/kg), or Peptide IW (30 μg/kg) at time of histamine challenge.
Rats received either saline, peptide JA (30 μg/kg), peptide IZ (30 μg/kg), peptide IW (30 μg/kg) or peptide ID (30 μg/kg) at time of histamine challenge.

[5] = tested on: 9 L gliosarcoma cells; assay: 9 L gliosarcoma implantation model, delayed treatment; assay type: in vivo, CD Fisher rats; settings: 25 nmole/kg i.p. daily starting two weeks after implantation, three weeks, FIG. 13, 14
Protocol: In accordance with the accordance with the protocol of Lampson et al. Cancer Res. 53:176-82:1993 described above, CD Fisher rats were implanted with 9 L gliosarcoma cells transfected with the LacZ gene by use of a Hamilton syringe. 100,000 cells in 10 microliters were injected into the right caudate.
ID with a short plasma half life, another receiving Peptide IW (pegylated form of Peptide IC) and the third group received saline. Peptides were given at a dose of 25 nmole/kg body weight. Three weeks later, the animals were sacrificed and serial 1 mm thick coronal sections cut through the brain and incubated with 5-bromo-4-chloro-3-indolyl-[beta]-D-galactopyranoside (Xgal). Tumor cells (containing the LacZ gene) metabolized Xgal into a dark blue stain, localizing the extent of tumor. High resolution digital images were obtained and the areas stained blue determined using planimetric methodology. Data is expressed as total area of tumor infiltration.

[6] = tested on: bilateral renal ischemia; assay: Bilateral renal ischemia assay; assay type: in vivo, C57/BL6 mice
Protocol: Sixty male C57/BL6 mice (˜25 g; Charles River Laboratories) were anesthetized with ketamine (150 mg/kg) and xylazine (15 mg/kg) i.p. Each animal was placed on a homeothermic blanket set at 37° C., and after a mid-line laparotomy, the renal pedicles were clamped for 30 minutes using nontraumatic vascular clamps. Peptide ID was administered at the indicated dose via i.p. Injection at 1 minute, 6 hours, and 12 hours after reperfusion. In a single dose study, the mice received a control (PBS), 1 μg/kg of Peptide IG at 1 minute, 1 μg/kg of Peptide IG at 30 minutes, 1 μg/kg of Peptide ID at 6 hours, or 10 μg/kg of Peptide ID at 6 hours (12 mice per group). In a multiple dose study, the mice received either multiple doses of a control (PBS), 0.1 μg/kg of Peptide ID, 1 μg/kg of Peptide ID, or 10 μg/kg of Peptide ID at 1 minute, 6 hours and 12 hours into reperfusion.
Twenty-four hours later, mice were reanesthetized and blood was obtained by cardiac puncture. Plasma urea and creatine were used as indicators of renal dysfunction and aspartate aminotransferase was used as an indicator of renal injury. Data were analyzed using ANOVA followed by Dunnett's post hoc test comparison.

[7] = tested on: middle cerebral artery occlusion; assay: Middle cerebral artery occlusion model; assay type: in vivo, Sprague Dawley rats; settings: after MCAO; 2 μg/kg bw i.v. upon reperfusion, then three injections at 2-hour intervals; FIG. 5
Protocol: Sprague Dawley rats (8 per group) are subjected to the following MCAO protocol Surgery was performed in accordance with the teachings of Brines et al, 2000, PNAS USA 97:10526-10531 (hereby incorporated by reference in its entirety. Briefly, the rats are anesthetized with chloral hydrate (400 mg/kg-bw, i.p.), the carotid arteries were visualized, and the right carotid was occluded by two sutures and severed. A burr hole adjacent and rostral to the right orbit allowed visualization of the middle cerebral artery (“MCA”), which was cauterized distal to the rhinal artery. To produce a penumbra (border zone) surrounding this fixed MCA lesion, the contralateral carotid artery was occluded for 1 hour by using […] provided by a fine forceps and then re-opened.
The rats were administered saline, Peptide ID as a single i.v. dose (2 μg/kg bw), or Peptide IX, […], SEQ ID NO: 301), a scrambled version of Peptide IC, SEQ ID NO: 281, as a single Lv. dose (2 μg/kg bw) upon reperfusion, followed by three additional injections at 2-hour intervals. For assessment of injury, rats are subjected to behavioral testing or the volume of the lesion is determined by tetrazolium staining of brain sections performed 24 hours post surgery in accordance with the previously noted protocol.
The volume of the lesion was then determined by tetrazolium staining of brain sections performed 24 hours post surgery.
Rats were also tested in a foot fault behavioral protocol. Rats were tested on an elevated stainless steel grid floor 30 cm×30 cm with grid size of 30 mm according to the protocol of Markgraf et al., 1992, Brain Research 575:238-246 (hereby incorporated by reference in its entirety). When placed on the grid, a rat would attempt to move around and occasionally place a foot, rather than on the grid, through a grid opening (“foot fault”). The number of foot faults was measured for a 1 minute period.
The number of foot faults is indicative of the cognitive impairment of the rats due to the MCAO, the fewer the number of foot faults the less cognitive impairment.

## QEQLERALNSS (Helix B amino acids derived Peptide IC) [exterior-presenting amino acids of helix B of EPO]
[1]
  volume of urine production (renal function): protected against renal dysfunction due to CDDT; also recorded: substantially like that of the control (PBS) group
[2]
  hotplate latency (time to withdraw paw): prevented the appearance of peripheral neuropathy; also recorded: substantially similar to the control group (PBS)

## NAIIKNAYKKG (Beta endorphin derived Peptide IG) [beta endorphin region]
[3]
  wound (ulcer) size (area): smallest wound size

## GLpLSEARNQSEL [Peptide IY, reference compound]
[4]; FIG. 18
  anti-inflammatory activity: did not exhibit anti-inflammatory activity
  wheal area (lesion area): about 0.6 cm^2

## PEG-QEQLERALNSS (XEQLERALNSS; PEG; Peptide IW) [pegylated form of Peptide IC, extended half-life peptide]
[5]
  tumor size (total area of tumor infiltration): marked reduction in tumor size; also recorded: exhibited the best outcomes; also recorded: reduction in size of the tumor equivalent to that achieved by immediate treatment with Peptide ID
[5]; listed as Peptide 1W
  tumor size (total area of tumor infiltration): reduced the size of tumor
[4]; FIG. 18
  wheal area (lesion area): ~0.3 cm^2

## GSWQRSLQDTE (Glucagon derived Peptide IH) [glucagon region]
[6]; multiple doses 1 μg/kg at 1 minute, 6 hours and 12 hours into reperfusion, FIG. 7
  creatinine, urea and aspartate aminotransferase (biochemical markers of renal dysfunction): reduction in these biochemical markers of renal dysfunction
[6]; multiple doses 10 μg/kg at 1 minute, 6 hours and 12 hours into reperfusion, FIG. 7
  creatinine, urea and aspartate aminotransferase (biochemical markers of renal dysfunction): reduction in these biochemical markers of renal dysfunction
[6]; single dose 1 μg/kg at 6 hours into reperfusion, 24 hrs of reperfusion, FIG. 6
  creatinine, urea and aspartate aminotransferase (biochemical markers of renal dysfunction): reduction in these biochemical markers of renal dysfunction
[6]; single dose 10 μg/kg at 6 hours into reperfusion, 24 hrs of reperfusion, FIG. 6
  creatinine, urea and aspartate aminotransferase (biochemical markers of renal dysfunction): reduction in these biochemical markers of renal dysfunction

## SSNLARELQEQ ([dS][dS][dN][dL][dA][dR][dE][dL][dQ][dE][dQ]; also: retro-inverso) [Peptide IZ, Retro Inverso Peptide IC]
[4]; FIG. 19
  wheal area (lesion area): ~0.4 cm^2 and 0.35 cm^2

## LSEQARNQSEL [Peptide IX, scrambled version of Peptide IC; called Peptide JA in b476, reference compound]
[7]
  number of foot faults in 1 minute period: 20.1±2.1 foot faults
[4]; FIG. 19
  wheal area (lesion area): about 0.6 cm^2
